The values below come from patent US20200369667A1, “HETEROCYCLIC COMPOUNDS AS PRMT5 INHIBITORS” (ANGEX PHARMACEUTICAL, INC., priority 2017, published 2020).

Structures are written as SMILES. Some results are limits rather than exact numbers.

PRMT5:MEP50, sequence (O14744 whole entry, species assumed): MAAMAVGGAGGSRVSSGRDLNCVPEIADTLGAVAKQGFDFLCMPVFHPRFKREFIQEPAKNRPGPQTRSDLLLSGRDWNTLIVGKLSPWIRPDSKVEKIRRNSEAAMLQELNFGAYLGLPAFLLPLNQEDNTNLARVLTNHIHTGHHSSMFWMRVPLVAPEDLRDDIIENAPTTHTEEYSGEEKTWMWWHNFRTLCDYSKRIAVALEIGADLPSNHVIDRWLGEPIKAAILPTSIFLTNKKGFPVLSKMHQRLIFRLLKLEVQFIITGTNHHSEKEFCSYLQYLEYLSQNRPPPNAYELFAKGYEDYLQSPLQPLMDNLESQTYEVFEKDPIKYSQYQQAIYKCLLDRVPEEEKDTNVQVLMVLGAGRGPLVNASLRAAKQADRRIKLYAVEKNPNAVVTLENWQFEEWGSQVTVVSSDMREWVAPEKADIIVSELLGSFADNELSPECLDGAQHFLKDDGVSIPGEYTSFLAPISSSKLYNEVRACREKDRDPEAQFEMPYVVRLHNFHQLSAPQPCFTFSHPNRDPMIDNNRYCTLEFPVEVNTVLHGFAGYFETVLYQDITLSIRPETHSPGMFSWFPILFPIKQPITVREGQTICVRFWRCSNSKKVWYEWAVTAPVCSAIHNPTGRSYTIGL
PRMT5:MEP50, sequence (Q9BQA1 whole entry partner, species assumed): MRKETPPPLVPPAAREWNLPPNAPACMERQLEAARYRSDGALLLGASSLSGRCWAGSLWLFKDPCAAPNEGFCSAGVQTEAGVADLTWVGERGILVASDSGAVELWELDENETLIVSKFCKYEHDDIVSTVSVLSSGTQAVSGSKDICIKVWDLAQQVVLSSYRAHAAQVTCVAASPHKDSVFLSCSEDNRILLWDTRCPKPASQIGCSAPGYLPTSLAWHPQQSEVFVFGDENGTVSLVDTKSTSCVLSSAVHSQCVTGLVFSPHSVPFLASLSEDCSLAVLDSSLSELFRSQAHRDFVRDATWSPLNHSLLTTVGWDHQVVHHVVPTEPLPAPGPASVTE

For this experiment, the target named is PRMT5:MEP50 (Homo sapiens, UniProt O14744). Kind of experiment: PRMT5:MEP50 Flashplate Assay. The format is biochemical. Conditions: PRMT5:MEP50 inhibitory activity, 3H-SAM FlashPlate, class symbol. The procedure:
Ten-point curves of inhibitor compounds were made using serial threefold dilutions in DMSO (the final top concentration of compound was 10 μM, 1% DMSO). Reaction mixture consisting of 50 mM Tris-HCl (pH 8.5), 0.002% Tween20, 0.005% BSA (Bovine Serum Albumin), 1 mM TCEP, and 1% DMSO. Substrates are freshly prepared in reaction buffer. PRMT5:MEP50 was then added into substrate solution and mixed gently. Inhibitor compound was then added and incubated for 30 min at room temperature. ^3H-SAM was added to initiate the reaction. Reactions were incubated for 2 h at room temperature and quenched with 0.5 mM SAM (S-adenosyl-L-Methionine) in assay buffer. An aliquot of the reaction mix was transferred to a streptavidin-coated 384-well FlashPlate (PerkinElmer). After an incubation time of 1 h, the plate was washed and then read on a TopCount (PerkinElmer) to measure the amount of tritium incorporated into the peptide substrate. IC50 was calculated using conventional curve-fitting method.
`Cn1c(N)nc2cc(CC[C@H]3C[C@@H](n4ccc5c(N)ncnc54)[C@H](O)[C@@H]3O)ccc2c1=O` [Compound 1-7, 2-amino-7-(2-((1S,2R,3S,4R)-4-(4-amino-7H-pyrrolo[2,3-d]pyrimidin-7-yl)-2,3-dihydroxycyclopentyl)ethyl)-3-methylquinazolin-4(3H)-one]: the IC50 is < 1 nM.
In the case of `C[C@H]1COc2cc3ccc(CC[C@H]4C[C@@H](n5ccc6c(N)ncnc65)[C@H](O)[C@@H]4O)cc3nc2N1` [Compound 1-8, (1R,2S,3R,5S)-3-(4-amino-7H-pyrrolo[2,3-d]pyrimidine-7-yl)-5-(2-((S)-3-methyl-3,4-dihydro-2H-[1,4]oxazino[3,2-b]quinoline-7-yl)ethyl)cyclopentane-1,2-diol], the IC50 was < 1 nM.
The result for `C[C@@H]1COc2cc3ccc(CC[C@H]4C[C@@H](n5ccc6c(N)ncnc65)[C@H](O)[C@@H]4O)cc3nc2N1` [Compound 1-9] reads < 1 nM; that for `C[C@@H]1CNc2nc3cc(CC[C@H]4C[C@@H](n5ccc6c(N)ncnc65)[C@H](O)[C@@H]4O)ccc3cc2O1` [Compound 1-10], < 1 nM.
The result for `C[C@H]1CNc2nc3cc(CC[C@H]4C[C@@H](n5ccc6c(N)ncnc65)[C@H](O)[C@@H]4O)ccc3cc2O1` [Compound 1-11] reads < 1 nM; that for `Nc1ncnc2c1ccn2[C@@H]1C[C@H](CCc2ccc3cc4c(nc3c2)NC(=O)CO4)[C@@H](O)[C@H]1O` [Compound 1-12], < 1 nM.
The result for `Nc1ncnc2c1ccn2[C@@H]1C[C@H](CCc2ccc3cc4c(nc3c2)NCCS4)[C@@H](O)[C@H]1O` [Compound 1-13] reads < 1 nM; that for `CN1C(N)=Nc2cc(CC[C@H]3C[C@@H](n4ccc5c(N)ncnc54)[C@H](O)[C@@H]3O)ccc2S1(=O)=O` [Compound 1-14], < 1 nM; that for `CC1(C)C(N)=Nc2cc(CC[C@H]3C[C@@H](n4ccc5c(N)ncnc54)[C@H](O)[C@@H]3O)ccc2S1(=O)=O` [Compound 1-15], 1 to 100 nM.
With `CC1(C)Oc2ccc(CC[C@H]3C[C@@H](n4ccc5c(N)ncnc54)[C@H](O)[C@@H]3O)cc2N=C1N` [Compound 1-16], the half-inhibitory concentration (IC50) is < 1 nM.
In the case of `Nc1ncnc2c1ccn2[C@@H]1C[C@H](CCc2ccc3c(=O)n(C4CC4)c(N)nc3c2)[C@@H](O)[C@H]1O` [Compound 1-17], the IC50 was < 1 nM.
The compound `CC1(C)Cn2c(nc3cc(CC[C@H]4C[C@@H](n5ccc6c(N)ncnc65)[C@H](O)[C@@H]4O)ccc3c2=O)N1` [Compound 1-18] came in with an IC50 of 1 to 100 nM.
Compound `CN1C(N)=Nc2cc(CC[C@H]3O[C@@H](n4ccc5c(N)ncnc54)[C@H](O)[C@@H]3O)ccc2S1(=O)=O` [Compound 2-8] came in with an IC50 of 1 to 100 nM.
Regarding `C[C@@H]1CNc2nc3cc(CC[C@H]4O[C@@H](n5ccc6c(N)ncnc65)[C@H](O)[C@@H]4O)ccc3cc2O1` [Compound 2-9], the IC50 was 1 to 100 nM.
As for `C[C@H]1CNc2nc3cc(CC[C@H]4O[C@@H](n5ccc6c(N)ncnc65)[C@H](O)[C@@H]4O)ccc3cc2O1` [Compound 2-10], the figure is 1 to 100 nM.
The result for `CC1(C)C(N)=Nc2cc(CC[C@H]3O[C@@H](n4ccc5c(N)ncnc54)[C@H](O)[C@@H]3O)ccc2S1(=O)=O` [Compound 2-11] reads 1 to 100 nM.
Take `CC1(C)Oc2ccc(CC[C@H]3O[C@@H](n4ccc5c(N)ncnc54)[C@H](O)[C@@H]3O)cc2N=C1N` [Compound 2-12]: the IC50 was < 1 nM.
The result for `Nc1nc2cc(CCC[C@H]3C[C@@H](n4ccc5c(N)ncnc54)[C@H](O)[C@@H]3O)ccc2cc1Br` [Compound 3-7] reads 1 to 100 nM; that for `Nc1ncnc2c1ccn2[C@@H]1C[C@H](CCc2ccc3cc4c(nc3c2)NC(=O)CS4)[C@@H](O)[C@H]1O` [Compound 4-3], < 1 nM.
